In patent publication US20070207454A1, “Novel method to identify targets for antibiotic development” (priority 2001, published 2007):

Columns and labels:
C1 lysin = C1 lysin (Streptococcus phage C1, UniProt Q7Y3F3); assay: Competition experiments with monosaccharides or cell wall carbohydrate extracts; format: cell-based, C1 bacteriophage; details: 20 mM monosaccharide
Method: FIG. 7 is a bar graph illustrating lysin pretreated with […] Sugar (GlcNAc for A, L-Rhamnose for AV, or GalNAc for C), or extracted Group A carbohydrate (10 mg/ml). The black marker indicates buffer pretreatment; the gray marker indicates sugar pretreatment; and the white marker indicates Group A carbohydrate pretreatment.
Competition experiments. The three groups of cells were pretreated with monosaccharide or buffer containing 20 mM monosaccharide (GlcNAc for A, L-rhamnose for AV, or GalNAc for C), or extracted Group A carbohydrate (10 mg/ml) prior to exposure to the C1 lysin.

PlyG lysin = format: cell-based, γ phage of Bacillus anthracis; details: for blocking of PlyG's killing ability: bacillus RSVF, competition assay
RSVF1 = details: cited from earlier work

Sequence of C1 lysin (Q7Y3F3 whole entry, looked up): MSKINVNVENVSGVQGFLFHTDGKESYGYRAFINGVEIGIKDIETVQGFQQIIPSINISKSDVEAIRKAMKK

SMILES: CC(=O)N[C@H]1C(O)O[C@H](CO)[C@@H](O)[C@@H]1O (some centres unmarked) [N-acetylglucosamine]
- effect of competitor on lysin activity (C1 lysin; group A cells): no decrease
- concentration that could block the lethal action of PlyG (PlyG lysin; exponential phase RSVF1, 15 min at 37° C., CFU ml^-1, FIG. 10): ≤ 0.5 mM

SMILES: CC(=O)N[C@@H]1C(O)O[C@H](CO)[C@@H](O)[C@@H]1O (some centres unmarked) [N-acetylmannosamine]
- blocking of PlyG's killing ability (PlyG lysin): Neither galactose nor N-acetylmannosamine blocked

SMILES: [H]/N=C(/N)N[C@H]1[C@H](O)[C@@H](O)[C@H](O[C@@H]2O[C@@H](C)[C@](O)(C=O)[C@H]2O[C@@H]2O[C@@H](CO)[C@H](O)[C@@H](O)[C@@H]2NC)[C@@H](N/C(N)=N\[H])[C@@H]1O [streptomycin]
- increase in resistance after EMS mutagenesis (RSVF1): 10,000 fold

SMILES: O=C[C@H](O)[C@@H](O)[C@@H](O)[C@H](O)CO [galactose]
- blocking of PlyG's killing ability (PlyG lysin): Neither galactose nor N-acetylmannosamine blocked

SMILES: CO[C@@H]1[C@@H](OC(N)=O)[C@@H](O)[C@H](Oc2ccc3c(O)c(NC(=O)c4ccc(O)c(CC=C(C)C)c4)c(=O)oc3c2C)OC1(C)C [novobiocin]
- increase in resistance after EMS mutagenesis (RSVF1): 1,000 fold

SMILES: C[C@H](O)[C@H](O)[C@@H](O)[C@@H](O)C=O [L-Rhamnose]
- effect of competitor on lysin activity (C1 lysin; AV cells): no decrease

SMILES: CC(=O)N[C@H]1C(O)O[C@H](CO)[C@H](O)[C@@H]1O (some centres unmarked) [GalNAc, N-acetyl-galactosamine]
- effect of competitor on lysin activity (C1 lysin; group C cells): no decrease
